ChEMBL document CHEMBL1201862, “PubChem BioAssay data set” (2004)
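Compound exposure: 48 hours, 5 concentrations, 96-well plates. GI50 marks 50% less growth.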 Calls of active or inactive are those of the source. No stated cut-off is given here; in the data, active = GI50 up to about 1.1 µM and inactive = higher.

Experiments:
Experiment in all cases: NCI-60 cell line screen, 48 h
[1] = tested on: K562
[2] = tested on: SN12C
[3] = tested on: HOP-62
[4] = tested on: MOLT-4
[5] = tested on: KM12
[6] = tested on: COLO 205
[7] = tested on: HL-60
[8] = tested on: U-251
[9] = tested on: SK-OV-3
[10] = tested on: A498
[11] = tested on: SNB-75
[12] = tested on: OVCAR-5
[13] = tested on: OVCAR-4
[14] = tested on: SK-MEL-28
[15] = tested on: Malme-3M
[16] = tested on: UO-31
[17] = tested on: OVCAR-3
[18] = tested on: MDA-N
[19] = tested on: MCF7

Measured: GI50

CCOP(=O)(OCC)C1CCCOC1=O (configuration not stated)
inactive: [1] > 100 µM | [2] > 100 µM | [3] > 100 µM | [4] > 100 µM | [5] > 100 µM | [6] > 100 µM | [7] > 100 µM | [8] > 100 µM | [9] > 100 µM | [10] > 100 µM | [11] > 100 µM | [12] > 100 µM | [13] > 100 µM | [14] > 100 µM | [15] > 100 µM | [16] > 100 µM | [17] > 100 µM

CCCCc1c2c(nc3c1CCC/C3=C\c1ccccc1)C(=O)CCC2
inactive: [1] 18.2 µM | [2] 19.6 µM | [3] 20.9 µM | [4] 13.8 µM | [5] 18.7 µM | [6] 22.8 µM | [7] 22.2 µM | [8] 15.2 µM | [9] 24.8 µM | [10] 19.4 µM | [11] 29.1 µM | [12] 19.5 µM | [13] 28.4 µM | [14] 19.8 µM | [15] 26 µM | [16] 24.5 µM | [17] 15.1 µM

c1ccc(/C(=N/Nc2cnccn2)c2ncccn2)cc1
inactive: [1] > 100 µM | [2] > 100 µM | [3] 53.5 µM | [18] > 100 µM | [4] 28.6 µM | [5] 39 µM | [6] 32.1 µM | [8] > 100 µM | [9] 57.7 µM | [11] 13.7 µM | [19] > 100 µM | [12] > 100 µM | [13] 67.9 µM | [14] > 100 µM | [16] 29 µM | [17] 30.8 µM

COC(=O)C(/C(=N/NC(N)=O)C(=O)Nc1c(C)cccc1C(C)(C)C)c1nc2ccc(Cl)cc2nc1O (configuration not stated)
inactive: [1] > 100 µM | [2] > 100 µM | [3] > 100 µM | [4] > 100 µM | [5] > 100 µM | [7] > 100 µM | [8] > 100 µM | [9] > 100 µM | [10] > 100 µM | [11] > 100 µM | [12] > 100 µM | [13] > 100 µM | [14] > 100 µM | [15] > 100 µM | [16] > 100 µM | [17] > 100 µM

Cn1c(O)c(C(=O)Nc2cccs2)c(=O)[nH]c1=S
inactive: [1] 51.9 µM | [2] 17.7 µM | [3] 17.4 µM | [4] 24.7 µM | [5] 17.9 µM | [6] 16.6 µM | [7] 78.9 µM | [8] 14.8 µM | [9] 16 µM | [10] 19.9 µM | [11] 16.9 µM | [12] 28.6 µM | [13] 22.5 µM | [14] 15.1 µM | [15] 16.1 µM | [16] 12.2 µM | [17] 19.9 µM

Clc1ccc(Nc2nnc(CNc3ccc(-c4nnc(Nc5ccc(Cl)cc5)s4)cc3)s2)cc1
inactive: [1] 7.71 µM | [2] 47.8 µM | [3] 30.4 µM | [18] 18.2 µM | [4] 19 µM | [5] 11 µM | [6] 20.2 µM | [8] 24.2 µM | [9] 47.3 µM | [10] 28.9 µM | [11] > 100 µM | [19] 17.9 µM | [12] 23.6 µM | [13] 27.5 µM | [14] 33.3 µM | [15] 52.5 µM | [16] 4.68 µM

CS(=O)(=O)C1(Br)S(=O)(=O)OCCOS1(=O)=O
inactive: [1] > 100 µM | [2] > 100 µM | [3] > 100 µM | [4] > 100 µM | [6] > 100 µM | [7] > 100 µM | [8] > 100 µM | [9] > 100 µM | [10] > 100 µM | [11] > 100 µM | [12] > 100 µM | [13] > 100 µM | [14] > 100 µM | [15] > 100 µM | [16] > 100 µM | [17] > 100 µM

COc1cc(-c2nn3c(=O)n(-c4ccc(Cl)cc4)c(=O)nc3s2)cc(OC)c1OC
inactive: [1] > 31.6 µM | [2] > 96.2 µM | [3] 18.4 µM | [4] 98.2 µM | [5] > 65.8 µM | [6] > 100 µM | [7] > 50 µM | [8] 18 µM | [9] > 50 µM | [10] > 67 µM | [11] 8.24 µM | [12] > 100 µM | [13] 41.9 µM | [14] > 93.1 µM | [15] 65.9 µM | [16] > 76.6 µM | [17] 54.5 µM

COC(=O)c1c(O)ccc2c1c1c(n2Cc2ccc(OC)cc2)C(=O)c2ccccc2C1
inactive: [1] 76.7 µM | [2] 27 µM | [3] > 100 µM | [18] 53.1 µM | [4] 40.8 µM | [5] 63.7 µM | [6] 16.9 µM | [7] > 100 µM | [8] 47.3 µM | [9] 31 µM | [10] > 100 µM | [11] 51.2 µM | [19] 22.4 µM | [13] 30.8 µM | [14] > 100 µM | [15] > 100 µM | [16] 41.6 µM | [17] 63.2 µM

CC1CCC2(NC1)OC1CC3[C@@H]4CC=C5C=CCC[C@]5(C)C4CC[C@]3(C)C1C2C (some centres not stated)
inactive: [1] 18.5 µM | [2] 27.7 µM | [3] 18.6 µM | [4] 21.7 µM | [5] 18.9 µM | [6] 17.3 µM | [7] 12.3 µM | [8] 28.3 µM | [9] 25.8 µM | [10] 69.7 µM | [11] 15.5 µM | [12] 23.6 µM | [13] 18.2 µM | [14] 15.6 µM | [15] 18.5 µM | [16] 21.8 µM | [17] 24.9 µM

COc1ccc(-c2cc(=O)c3c(O)cccc3o2)c(OC)c1OC
inactive: [1] 6.59 µM | [2] 76.9 µM | [3] 10.3 µM | [4] 12.9 µM | [5] 40.6 µM | [6] > 100 µM | [7] 10.1 µM | [8] 16.1 µM | [9] > 100 µM | [10] 33 µM | [11] 11.9 µM | [12] 6.67 µM | [13] 74.5 µM | [14] > 100 µM | [15] > 100 µM | [17] > 100 µM

NC(=O)CC[C@H]1C(=O)N=C(N)N1C(=O)OCc1ccccc1
inactive: [1] > 100 µM | [2] > 100 µM | [3] > 100 µM | [18] > 100 µM | [4] > 100 µM | [5] > 100 µM | [6] > 100 µM | [7] > 100 µM | [8] > 100 µM | [10] > 100 µM | [11] > 100 µM | [19] > 100 µM | [12] > 100 µM | [13] > 100 µM | [14] > 100 µM | [15] > 100 µM | [16] > 100 µM | [17] > 100 µM
